Assay results taken from patent US20250101041A1, “POSITIVE ALLOSTERIC MODULATORS OF THE MUSCARINIC ACETYLCHOLINE RECEPTOR M4” (Vanderbilt University, priority 2022, published 2025).

Molecular target: T1, human mAChR M4 (Homo sapiens, UniProt P08173)
T1 construct: expressed in transfected cells; host or cells: CHO-K1 (American Type Culture Collection), stably expressing hM4 and Gqi5
T1 sequence (P08173 1-479): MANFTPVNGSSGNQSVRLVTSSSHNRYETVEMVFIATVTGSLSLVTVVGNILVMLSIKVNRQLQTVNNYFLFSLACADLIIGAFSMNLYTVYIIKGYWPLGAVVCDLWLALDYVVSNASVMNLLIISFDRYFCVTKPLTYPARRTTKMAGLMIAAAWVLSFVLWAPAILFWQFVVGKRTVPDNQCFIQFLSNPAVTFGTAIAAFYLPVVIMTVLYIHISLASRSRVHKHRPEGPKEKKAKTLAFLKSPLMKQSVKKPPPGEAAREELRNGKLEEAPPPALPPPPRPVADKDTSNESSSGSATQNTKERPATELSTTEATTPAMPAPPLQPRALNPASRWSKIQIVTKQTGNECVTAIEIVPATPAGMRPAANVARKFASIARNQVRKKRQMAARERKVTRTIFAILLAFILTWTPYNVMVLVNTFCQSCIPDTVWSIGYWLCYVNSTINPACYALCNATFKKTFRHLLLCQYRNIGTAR
Assay: mAChR M4 cell-based functional assay: calcium mobilization (Fluo-4, FDSS), potentiation of EC20 acetylcholine response in hM4-Gqi5 CHO-K1 cells
Settings: human M4; for Emax at 30 µM: CHO-K1, % ACh maximum at 30 μM; for EC50: potentiation of EC20 acetylcholine response, calcium mobilization
In short: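 CHO-K1 cells stably co-expressing human M4 and chimeric Gqi5, loaded with Fluo-4 AM (50 min, 37 °C). Compounds in 11-point 1:3 series added first; EC20 acetylcholine added at 144 s and again at 230 s. Calcium read on FDSS at 1 Hz; EC50 and Emax from four-parameter logistic fit of potentiated EC20 response.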

`Cc1cc(=O)n2nc(N3CCc4ncc(N5CCCn6nccc65)cc4C3)c(C)cc2n1` [Compound 2-10, 7-(3-(6,7-dihydropyrazolo[1,5-a]pyrimidin-4(5H)-yl)-7,8-dihydro-1,6-naphthyridin-6(5H)-yl)-2,8-dimethyl-4H-pyrimido[1,2-b]pyridazin-4-one] showed an Emax at 30 µM of 94% and an EC50 of 70 nM.
With `Cc1cc2nc(C(F)(F)F)cc(=O)n2nc1N1CCc2ncc(N3CCCn4nccc43)cc2C1` [Compound 2-11, 7-(3-(6,7-dihydropyrazolo[1,5-a]pyrimidin-4(5H)-yl)-7,8-dihydro-1,6-naphthyridin-6(5H)-yl)-8-methyl-2-(trifluoromethyl)-4H-pyrimido[1,2-b]pyridazin-4-one] the Emax at 30 µM was 115% and the EC50 was 19 nM.
In the case of `Cc1nc2c(C)c(C)c(N3CCc4ncc(N5CCCn6nccc65)cc4C3)nn2c(=O)c1F` [Compound 2-12, 7-(3-(6,7-dihydropyrazolo[1,5-a]pyrimidin-4(5H)-yl)-7,8-dihydro-1,6-naphthyridin-6(5H)-yl)-3-fluoro-2,8,9-trimethyl-4H-pyrimido[1,2-b]pyridazin-4-one], the Emax at 30 µM is reported as 128% and the EC50 is reported as 39 nM.
`Cc1cc2nc(C)c(C)c(=O)n2nc1N1CCc2ncc(N3CCCn4nccc43)cc2C1` [Compound 2-13, 7-(3-(6,7-dihydropyrazolo[1,5-a]pyrimidin-4(5H)-yl)-7,8-dihydro-1,6-naphthyridin-6(5H)-yl)-2,3,8-trimethyl-4H-pyrimido[1,2-b]pyridazin-4-one] was tested, and the Emax at 30 µM was 82% and the EC50 was 27 nM.
`Cc1cc2nc(C(F)F)cc(=O)n2nc1N1CCc2ncc(N3CCCn4nccc43)cc2C1` [Compound 2-14, 2-(difluoromethyl)-7-(3-(6,7-dihydropyrazolo[1,5-a]pyrimidin-4(5H)-yl)-7,8-dihydro-1,6-naphthyridin-6(5H)-yl)-8-methyl-4H-pyrimido[1,2-b]pyridazin-4-one] gave an Emax at 30 µM of 88% and an EC50 of 22 nM.
Work on `Cc1cc2nc(C3CC3)cc(=O)n2nc1N1CCc2ncc(N3CCCn4nccc43)cc2C1` [Compound 2-15, 2-cyclopropyl-7-(3-(6,7-dihydropyrazolo[1,5-a]pyrimidin-4(5H)-yl)-7,8-dihydro-1,6-naphthyridin-6(5H)-yl)-8-methyl-4H-pyrimido[1,2-b]pyridazin-4-one] yielded an Emax at 30 µM of 85% and an EC50 of 7 nM.
For `Cc1cc2nc(C)c(Cl)c(=O)n2nc1N1CCc2ncc(N3CCCn4nccc43)cc2C1` [Compound 2-16, 3-chloro-7-(3-(6,7-dihydropyrazolo[1,5-a]pyrimidin-4(5H)-yl)-7,8-dihydro-1,6-naphthyridin-6(5H)-yl)-2,8-dimethyl-4H-pyrimido[1,2-b]pyridazin-4-one], the Emax at 30 µM was 88% and the EC50 was 12 nM.
Work on `Cc1cc(=O)n2nc(N3CCc4ncc(N5CCOc6ncccc65)cc4C3)c(C)cc2n1` [Compound 2-17, 7-(3-(2,3-dihydro-1H-pyrido[2,3-b][1,4]oxazin-1-yl)-7,8-dihydro-1,6-naphthyridin-6(5H)-yl)-2,8-dimethyl-4H-pyrimido[1,2-b]pyridazin-4-one] yielded an Emax at 30 µM of 98% and an EC50 of 9 nM.
For `Cc1cc(=O)n2nc(N3CCc4ncc(N5CCO[C@H](C)C5)cc4C3)c(C)cc2n1` [Compound 2-18, (R)-2,8-dimethyl-7-(3-(2-methylmorpholino)-7,8-dihydro-1,6-naphthyridin-6(5H)-yl)-4H-pyrimido[1,2-b]pyridazin-4-one], the Emax at 30 µM was 92% and the EC50 was 80 nM.
For `Cc1cc(=O)n2nc(N3CCc4ncc(Nc5cccnc5F)cc4C3)c(C)cc2n1` [Compound 2-19, 7-(3-((2-fluoropyridin-3-yl)amino)-7,8-dihydro-1,6-naphthyridin-6(5H)-yl)-2,8-dimethyl-4H-pyrimido[1,2-b]pyridazin-4-one], the Emax at 30 µM was 79% and the EC50 was 60 nM.
Molecule `Cc1cc(=O)n2nc(N3CCc4ncc(Nc5ccnn5C)cc4C3)c(C)cc2n1` [Compound 2-20, 2,8-dimethyl-7-(3-((1-methyl-1H-pyrazol-5-yl)amino)-7,8-dihydro-1,6-naphthyridin-6(5H)-yl)-4H-pyrimido[1,2-b]pyridazin-4-one] has an Emax at 30 µM of 88% and an EC50 of 166 nM.
For `Cc1cc(=O)n2nc(N3CCc4ncc(N5CCCn6nc(C)cc65)cc4C3)c(C)cc2n1` [Compound 2-21, 2,8-dimethyl-7-(3-(2-methyl-6,7-dihydropyrazolo[1,5-a]pyrimidin-4(5H)-yl)-7,8-dihydro-1,6-naphthyridin-6(5H)-yl)-4H-pyrimido[1,2-b]pyridazin-4-one], the Emax at 30 µM was 87% and the EC50 was 37 nM.
`Cc1cc(=O)n2nc(N3CCc4ncc(-n5cccn5)cc4C3)c(C)cc2n1` [Compound 2-22, 7-(3-(1H-pyrazol-1-yl)-7,8-dihydro-1,6-naphthyridin-6(5H)-yl)-2,8-dimethyl-4H-pyrimido[1,2-b]pyridazin-4-one] showed an Emax at 30 µM of 56% and an EC50 of 97 nM.
`Cc1cc(=O)n2nc(N3CCc4ncc(N5CCCn6nccc65)cc4C3)c(C)c(C)c2n1` [Compound 2-23, 7-(3-(6,7-dihydropyrazolo[1,5-a]pyrimidin-4(5H)-yl)-7,8-dihydro-1,6-naphthyridin-6(5H)-yl)-2,8,9-trimethyl-4H-pyrimido[1,2-b]pyridazin-4-one] was tested, and the Emax at 30 µM was 83% and the EC50 was 18 nM.
With `Cc1cc2nc(C(F)F)cc(=O)n2nc1N1CCc2ncc(N3CCOC(C)(C)C3)cc2C1` [Compound 2-24, 2-(difluoromethyl)-7-(3-(2,2-dimethylmorpholino)-7,8-dihydro-1,6-naphthyridin-6(5H)-yl)-8-methyl-4H-pyrimido[1,2-b]pyridazin-4-one] the Emax at 30 µM was 95% and the EC50 was 51 nM.
Work on `Cc1cc2nc(C(F)F)cc(=O)n2nc1N1CCc2ncc(N3CCO[C@H](C)C3)cc2C1` [Compound 2-25, (R)-2-(difluoromethyl)-8-methyl-7-(3-(2-methylmorpholino)-7,8-dihydro-1,6-naphthyridin-6(5H)-yl)-4H-pyrimido[1,2-b]pyridazin-4-one] yielded an Emax at 30 µM of 90% and an EC50 of 209 nM.
`Cc1cc2nc(C(F)F)cc(=O)n2nc1N1CCc2ncc(-n3cccn3)cc2C1` [Compound 2-26, 7-(3-(1H-pyrazol-1-yl)-7,8-dihydro-1,6-naphthyridin-6(5H)-yl)-2-(difluoromethyl)-8-methyl-4H-pyrimido[1,2-b]pyridazin-4-one] gave an Emax at 30 µM of 87% and an EC50 of 105 nM.
In the case of `Cc1cc2nc(C(F)F)cc(=O)n2nc1N1CCc2ncc(Nc3ccnn3C)cc2C1` [Compound 2-27, 2-(difluoromethyl)-8-methyl-7-(3-((1-methyl-1H-pyrazol-5-yl)amino)-7,8-dihydro-1,6-naphthyridin-6(5H)-yl)-4H-pyrimido[1,2-b]pyridazin-4-one], the Emax at 30 µM is reported as 86% and the EC50 is reported as 41 nM.
Work on `Cc1cc2n(n1)CCCN2c1cnc2c(c1)CN(c1nn3c(=O)cc(C(F)F)nc3cc1C)CC2` [Compound 2-28, 2-(difluoromethyl)-8-methyl-7-(3-(2-methyl-6,7-dihydropyrazolo[1,5-a]pyrimidin-4(5H)-yl)-7,8-dihydro-1,6-naphthyridin-6(5H)-yl)-4H-pyrimido[1,2-b]pyridazin-4-one] yielded an Emax at 30 µM of 85% and an EC50 of 19 nM.
Work on `Cc1cc2nc(C(F)F)cc(=O)n2nc1N1CCc2ncc(N3CCOc4ncccc43)cc2C1` [Compound 2-29, 2-(difluoromethyl)-7-(3-(2,3-dihydro-1H-pyrido[2,3-b][1,4]oxazin-1-yl)-7,8-dihydro-1,6-naphthyridin-6(5H)-yl)-8-methyl-4H-pyrimido[1,2-b]pyridazin-4-one] yielded an Emax at 30 µM of 90% and an EC50 of 13 nM.
Molecule `Cc1c(N2CCc3ncc(N4CCCn5nccc54)cc3C2)nn2c(=O)cc(C(F)(F)F)nc2c1C` [Compound 2-30, 7-(3-(6,7-dihydropyrazolo[1,5-a]pyrimidin-4(5H)-yl)-7,8-dihydro-1,6-naphthyridin-6(5H)-yl)-8,9-dimethyl-2-(trifluoromethyl)-4H-pyrimido[1,2-b]pyridazin-4-one] has an Emax at 30 µM of 83% and an EC50 of 20 nM.
In the case of `Cc1c(N2CCc3ncc(N4CCCn5nccc54)cc3C2)nn2c(=O)cc(C(F)F)nc2c1C` [Compound 2-31, 2-(difluoromethyl)-7-(3-(6,7-dihydropyrazolo[1,5-a]pyrimidin-4(5H)-yl)-7,8-dihydro-1,6-naphthyridin-6(5H)-yl)-8,9-dimethyl-4H-pyrimido[1,2-b]pyridazin-4-one], the Emax at 30 µM is reported as 91% and the EC50 is reported as 14 nM.
Work on `Cc1c(N2CCc3ncc(N4CCO[C@H](C)C4)cc3C2)nn2c(=O)ccnc2c1C` [Compound 2-32, (R)-8,9-dimethyl-7-(3-(2-methylmorpholino)-7,8-dihydro-1,6-naphthyridin-6(5H)-yl)-4H-pyrimido[1,2-b]pyridazin-4-one] yielded an Emax at 30 µM of 94% and an EC50 of 84 nM.
For `Cc1c(N2CCc3ncc(N4CCOc5ncccc54)cc3C2)nn2c(=O)ccnc2c1C` [Compound 2-33, 7-(3-(2,3-dihydro-1H-pyrido[2,3-b][1,4]oxazin-1-yl)-7,8-dihydro-1,6-naphthyridin-6(5H)-yl)-8,9-dimethyl-4H-pyrimido[1,2-b]pyridazin-4-one], the Emax at 30 µM was 89% and the EC50 was 15 nM.
